Data from ChEMBL document CHEMBL1130308, “Cytotoxicity of bis(phenylamidinium)furan alkyl derivatives in human tumour cell lines: Relation to DNA minor groove binding” (Bioorg Med Chem Lett, 1997).

Key:
Assay type in all cases: functional, cell-based
A2780 [1] = experiment: The compound was tested for cytotoxic potency against A2780R human tumor cell lines.
A2780 [2] = experiment: The compound was tested for cytotoxic potency against A2780 human tumor cell lines.
CH1 = experiment: The compound was tested for cytotoxic potency against CH1 human tumor cell lines.
SK-OV-3 = experiment: The compound was tested for cytotoxic potency against SKOV-3 human tumor cell lines.
A2780 [3] = experiment: The compound was tested for cytotoxic potency against A2780 human tumor cell lines

N=C(NC1CCCCC1)c1ccc(-c2ccc(-c3ccc(C(=N)NC4CCCCC4)cc3)o2)cc1
IC50 (A2780 [1]; Homo sapiens, A2780): 2.5 µM | IC50 (A2780 [2]; Homo sapiens, A2780): 4.8 µM | IC50 (CH1; Homo sapiens, CH1): 2.1 µM | IC50 (SK-OV-3): 5.2 µM

N=C(N)c1ccc(-c2ccc(-c3ccc(C(=N)N)cc3)o2)cc1 [FURAMIDINE]
IC50 (A2780 [1]; Homo sapiens, A2780): 15.5 µM | IC50 (A2780 [3]): 46 µM | IC50 (CH1; Homo sapiens, CH1): 46.5 µM | IC50 (SK-OV-3): 42.5 µM

N=C(NC1CCC1)c1ccc(-c2ccc(-c3ccc(C(=N)NC4CCC4)cc3)o2)cc1
IC50 (A2780 [1]; Homo sapiens, A2780): 3.3 µM | IC50 (A2780 [2]; Homo sapiens, A2780): 11 µM | IC50 (CH1; Homo sapiens, CH1): 4.2 µM | IC50 (SK-OV-3): 25 µM

CC(C)NC(=N)c1ccc(-c2ccc(-c3ccc(C(=N)NC(C)C)cc3)o2)cc1
IC50 (A2780 [1]; Homo sapiens, A2780): 6.4 µM | IC50 (A2780 [2]; Homo sapiens, A2780): 38 µM | IC50 (CH1; Homo sapiens, CH1): 44.5 µM | IC50 (SK-OV-3): 20.5 µM

N=C(NCC1CC1)c1ccc(-c2ccc(-c3ccc(C(=N)NCC4CC4)cc3)o2)cc1
IC50 (A2780 [1]; Homo sapiens, A2780): 13 µM | IC50 (A2780 [2]; Homo sapiens, A2780): 36 µM | IC50 (CH1; Homo sapiens, CH1): 15 µM | IC50 (SK-OV-3): 56 µM

N=C(NC1CC1)c1ccc(-c2ccc(-c3ccc(C(=N)NC4CC4)cc3)o2)cc1
IC50 (A2780 [1]; Homo sapiens, A2780): 15.5 µM | IC50 (A2780 [2]; Homo sapiens, A2780): 37 µM | IC50 (CH1; Homo sapiens, CH1): 18 µM | IC50 (SK-OV-3): 48 µM

N=C(NC1CCCC1)c1ccc(-c2ccc(-c3ccc(C(=N)NC4CCCC4)cc3)o2)cc1
IC50 (A2780 [1]; Homo sapiens, A2780): 3.8 µM | IC50 (A2780 [2]; Homo sapiens, A2780): 12 µM | IC50 (CH1; Homo sapiens, CH1): 3.6 µM | IC50 (SK-OV-3): 17 µM

CISPLATIN
IC50 (A2780 [1]; a2780): 3.3 µM | IC50 (A2780 [2]; a2780): 0.3 µM | IC50 (CH1; ch1): 0.1 µM

CCC(CC)NC(=N)c1ccc(-c2ccc(-c3ccc(C(=N)NC(CC)CC)cc3)o2)cc1
IC50 (A2780 [1]; Homo sapiens, A2780): 7.1 µM | IC50 (A2780 [2]; Homo sapiens, A2780): 32.5 µM | IC50 (CH1; Homo sapiens, CH1): 16 µM | IC50 (SK-OV-3): 31 µM

CC(C)CNC(=N)c1ccc(-c2ccc(-c3ccc(C(=N)NCC(C)C)cc3)o2)cc1
IC50 (A2780 [1]; Homo sapiens, A2780): 12 µM | IC50 (A2780 [2]; Homo sapiens, A2780): 22.5 µM | IC50 (CH1; Homo sapiens, CH1): 9 µM | IC50 (SK-OV-3): 52 µM
